# According to US20130345061A1 (priority 2011, published 2013):
# Values joined by “and” are separate entries in the source; they are usually repeats but may differ in a detail not shown here. Identical values can stand only once. Like-named read-outs stand apart in the source and are kept apart here.
# Test system: Pseudomonas syringae pv. porri
# Assay type: in vivo
# Details: for % infection / Total number of positive leaves per object: repeats A and B
# [1] = wetting agent 0, leek, natural washing off 15 mm, reading after 8 weeks
# [2] = wetting agent (emulsion according to the invention) 0.25%, CuSO4 6 g/L
# [3] = wetting agent (emulsion according to the invention) 0.50%, CuSO4 6 g/L
# [4] = wetting agent (emulsion according to the invention) 1.00%, CuSO4 6 g/L
structure (smiles),measurement,setting,value
"O=S(=O)([O-])[O-].[Cu+2] [CuSO4, copper sulfate]",significant difference to reference product Phyton 27 (statistical test),copper sulfate with the wetting agent at 0.5% or 1%,equivalent to the reference product
same,% infection,[1],52% and 49%
same,Total number of positive leaves per object,[1],29
same,% infection,[2],35% and 37%
same,Total number of positive leaves per object,[2],18 and 17
same,% infection,[3],31%
same,Total number of positive leaves per object,[3],17 and 16
same,% infection,[4],25% and 27%
same,Total number of positive leaves per object,[4],13 and 15
same,leaves attacked / level of infection per mode,"without wetting agent, value for the whole mode",more than 50%
